From ChEMBL document CHEMBL1140475, “Structure-activity relationship (SAR) investigations of substituted imidazole analogs as TRPV1 antagonists” (Bioorg Med Chem Lett, 2007)

Assays:
[1] = target: T1, Transient receptor potential cation channel subfamily V member 1 (Rattus norvegicus, UniProt O35433); test: Antagonist activity at rat TRPV1 expressed in CHO cells assessed blocking of acid-induced calcium influx at pH 5; assay type: functional, cell-based
[2] = target: T1, Transient receptor potential cation channel subfamily V member 1; test: Antagonist activity at rat TRPV1 expressed in CHO cells assessed blocking of capsaicin-induced calcium influx; assay type: functional, cell-based
[3] = AUC (0 to infinity) in Sprague-Dawley rat at 1 mg/kg, iv; assay type: ADME, organism-based; design: time infinity, dose 1 mg/kg, route intravenous; conditions: plasma
[4] = Clearance in Sprague-Dawley rat at 1 mg/kg, iv; assay type: ADME, organism-based; design: dose 1 mg/kg, route intravenous; conditions: in vivo
[5] = Half life in Sprague-Dawley rat at 1 mg/kg, iv; assay type: ADME, organism-based; design: dose 1 mg/kg, route intravenous; conditions: in vivo
[6] = Volume of distribution at steady state in Sprague-Dawley rat at 1 mg/kg, iv; assay type: ADME, organism-based; design: dose 1 mg/kg, route intravenous; conditions: in vivo, read-out: Vdss
[7] = Cmax in Sprague-Dawley rat at 5 mg/kg, po; assay type: ADME, organism-based; design: dose 5 mg/kg, route oral; conditions: in vivo
[8] = Tmax in Sprague-Dawley rat at 5 mg/kg, po; assay type: ADME, organism-based; design: dose 5 mg/kg, route oral; conditions: in vivo
[9] = AUC (0 to infinity) in Sprague-Dawley rat at 5 mg/kg, po; assay type: ADME, organism-based; design: time infinity, dose 5 mg/kg, route oral; conditions: plasma
[10] = Bioavailability in Sprague-Dawley rat at 5 mg/kg; assay type: ADME, organism-based; conditions: in vivo

T1 sequence (O35433 whole entry): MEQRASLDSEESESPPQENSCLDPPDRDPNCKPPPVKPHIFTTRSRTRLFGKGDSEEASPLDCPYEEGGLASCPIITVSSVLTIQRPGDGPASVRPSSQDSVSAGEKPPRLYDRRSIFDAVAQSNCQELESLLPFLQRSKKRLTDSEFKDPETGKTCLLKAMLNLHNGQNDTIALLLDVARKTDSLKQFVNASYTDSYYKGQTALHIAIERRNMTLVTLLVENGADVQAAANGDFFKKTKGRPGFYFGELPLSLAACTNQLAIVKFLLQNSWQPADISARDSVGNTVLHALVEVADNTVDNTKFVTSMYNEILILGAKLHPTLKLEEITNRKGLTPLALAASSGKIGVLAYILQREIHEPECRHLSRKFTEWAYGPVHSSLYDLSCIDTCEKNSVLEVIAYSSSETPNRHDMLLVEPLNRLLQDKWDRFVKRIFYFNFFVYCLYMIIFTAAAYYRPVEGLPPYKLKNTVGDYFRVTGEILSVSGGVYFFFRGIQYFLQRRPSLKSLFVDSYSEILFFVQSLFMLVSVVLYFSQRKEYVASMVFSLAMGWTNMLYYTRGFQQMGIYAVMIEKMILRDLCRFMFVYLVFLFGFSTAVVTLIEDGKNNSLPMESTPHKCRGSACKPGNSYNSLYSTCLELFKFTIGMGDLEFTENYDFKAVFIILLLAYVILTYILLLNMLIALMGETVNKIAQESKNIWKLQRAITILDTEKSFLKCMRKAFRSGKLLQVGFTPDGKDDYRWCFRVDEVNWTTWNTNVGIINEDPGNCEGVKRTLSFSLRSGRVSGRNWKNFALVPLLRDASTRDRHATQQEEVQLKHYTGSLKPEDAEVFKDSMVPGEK

SMILES	IC50 [1] [nM]	IC50 [2] [nM]	other results
Fc1cc(-c2nc(N3CCN(c4ncccc4C(F)(F)F)CC3)[nH]c2-c2cc(F)c(F)c(F)c2)cc(F)c1F	32	44	
C[C@@H]1CN(c2ncc(CO)cc2Cl)CCN1c1nc(-c2cc(F)c(F)c(F)c2)c(-c2ccc(C(F)(F)F)cc2)[nH]1	4	1	AUC(0-inf) [3]: 1230 ng·h/mL; clearance [4]: 13.3 mL/min/kg; half-life [5]: 6.3 h; Vd [6]: 5.4 L/kg; Cmax [7]: 347 ng/mL; Tmax [8]: 4.7 h; AUC(0-inf) [9]: 2460 ng·h/mL; bioavailability [10]: 40%
O=C(NCC1CCCCN1)c1nc(N2CCN(c3ncccc3C(F)(F)F)CC2)[nH]c1-c1ccc(C(F)(F)F)cc1 (stereo not given)	> 4000	2950	
COC(=O)c1nc(N2CCN(c3ncccc3C(F)(F)F)CC2)[nH]c1-c1ccc(C(F)(F)F)cc1	180	1170	
CC(C)CN1CCCCC1CNC(=O)c1nc(N2CCN(c3ncccc3C(F)(F)F)CC2)[nH]c1-c1ccc(C(F)(F)F)cc1 (stereo not given)	> 4000	1900	
CC(C)N1CCN(C(=O)c2nc(N3CCN(c4ncccc4C(F)(F)F)CC3)[nH]c2-c2ccc(C(F)(F)F)cc2)CC1	1000	700	
C[C@@H]1CN(c2ncc(CO)cc2Cl)CCN1c1nc(-c2ccccc2)c(-c2ccc(C(F)(F)F)cc2)[nH]1	29	26	
FC(F)(F)c1ccc(-c2c[nH]c(N3CCN(c4ncccc4C(F)(F)F)CC3)n2)cc1	> 4000	861	
OCc1cnc(N2CCN(c3nc(-c4ccccc4)c(-c4ccc(C(F)(F)F)cc4)[nH]3)CC2)c(Cl)c1	160	90	
CCN1CCCC1CNC(=O)c1nc(N2CCN(c3ncccc3C(F)(F)F)CC2)[nH]c1-c1ccc(C(F)(F)F)cc1 (stereo not given)	3300	4100	

The next lines start with results.

IC50 [1] [nM]	IC50 [2] [nM]	SMILES	other results
85	35	Fc1cc(F)cc(-c2nc(N3CCN(c4ncccc4C(F)(F)F)CC3)[nH]c2-c2ccc(C(F)(F)F)cc2)c1	
216	107	FC(F)(F)c1ccc(-c2[nH]c(N3CCN(c4ncccc4C(F)(F)F)CC3)nc2-c2ccccc2)cc1	AUC(0-inf) [3]: 105 ng·h/mL; clearance [4]: 167 mL/min/kg; half-life [5]: 2.3 h; Vd [6]: 5 L/kg; Cmax [7]: 13 ng/mL; Tmax [8]: 1.3 h; AUC(0-inf) [9]: 30 ng·h/mL; bioavailability [10]: 6%
> 4000	160	FC(F)(F)c1ccc(-c2nc(N3CCN(c4ncccc4C(F)(F)F)CC3)[nH]c2Cl)cc1	
20	7	Fc1cc(-c2nc(N3CCN(c4ncccc4C(F)(F)F)CC3)[nH]c2-c2ccc(C(F)(F)F)cc2)cc(F)c1F	AUC(0-inf) [3]: 529 ng·h/mL; clearance [4]: 31.7 mL/min/kg; half-life [5]: 1.9 h; Vd [6]: 1.7 L/kg; Cmax [7]: 17 ng/mL; Tmax [8]: 1 h; AUC(0-inf) [9]: 80 ng·h/mL; bioavailability [10]: 3%
> 4000	628	Cc1nc(N2CCN(c3ncccc3C(F)(F)F)CC2)[nH]c1-c1ccc(C(F)(F)F)cc1	
341	117	C[C@@H]1CN(c2ncccc2C(F)(F)F)CCN1c1nc(-c2ccccc2)c(-c2ccc(C(F)(F)F)cc2)[nH]1	
165	1240	FC(F)(F)c1cccc(-c2[nH]c(N3CCN(c4ncccc4C(F)(F)F)CC3)nc2-c2ccccc2)c1	
146	573	FC(F)(F)c1ccc(-c2nc(N3CCN(c4ncccc4C(F)(F)F)CC3)[nH]c2-c2ccc(C(F)(F)F)cc2)cc1	
